In patent US20240343681A1, “MOLECULES HAVING PESTICIDAL UTILITY AND INTERMEDIATES AND PROCESSES RELATED THERETO” (priority 2021, published 2024):

Columns and labels:
[1] = system: Yellow Fever Mosquito (Aedes aegypti, AEDSAE) larvae; experiment: Bioassay on yellow fever mosquito (YFM), 96-well plate larval assay; format: in vivo; details: 4000 ppm (master plate solution), about 1 day-old larvae, 3 days
Method: Example B: Bioassays on Yellow Fever Mosquito (Aedes aegypti, AEDSAE) (“YFM”)
Master plates containing 400 μg of a molecule dissolved in 100 μL of dimethyl sulfoxide (DMSO) (equivalent to a 4000 ppm solution) are used. A master plate of assembled molecules contains 15 μL per well. To this plate, 135 μL of a 90:10 water/acetone mixture is added to each well. A robot (Biomek® NXP Laboratory Automation Workstation) is programmed to dispense 15 μL aspirations from the master plate into an empty 96-well shallow plate (“daughter” plate). There are 6 reps (“daughter” plates) created per master. The created “daughter” plates are then immediately infested with YFM larvae.
The day before plates are to be treated, mosquito eggs are placed in Millipore water containing liver powder to begin hatching (4 g into 400 mL). After the “daughter” plates are created using the robot, they are infested with 220 μL of the liver powder/larval mosquito mixture (about 1 day-old larvae). After plates are infested with mosquito larvae, a non-evaporative lid is used to cover the plate to reduce drying. Plates are held at room temperature for 3 days prior to grading. After 3 days, each well is observed and scored based on mortality.

[2] = system: Beet Armyworm (Spodoptera exigua, LAPHEG) second instar larva; experiment: Bioassay on beet armyworm (BAW), 128-well diet tray assay; format: in vivo; details: 50 μg/cm^2 on artificial diet, 25° C., five days
Method in brief: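 Test molecule in 90:10 acetone–water applied at 50 μg/cm^2 onto 1 mL artificial diet and dried; one second-instar larva per well, eight wells. Held 5 days at 25 °C, 14:10 light–dark; percent mortality averaged over the eight wells.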

target pests = experiment: Screening of separated stereoisomer peaks against target pests; format: in vivo; details: SFC-separated R,R and S,S isomers (F107 and F108)
Method: trans-rac-N-(3-Amino-4-chlorophenyl)-2,2-dichloro-3-(4-fluoro-3-(trifluoromethyl)phenyl)cyclopropane-1-carboxamide (C20, 1.0 g, 2.27 mmol) was added to a solution of 2,6-difluoronicotinic acid (0.36 g, 2.27 mmol) in toluene (25 mL). Pyridine (0.72 mL, 9.05 mmol) was added dropwise, and 2,4,6-tripropyl-1,3,5,2,4,6-trioxatriphosphinane 2,4,6-trioxide as a 50% solution in ethyl acetate (5.8 mL, 9.05 mmol) was added at room temperature. The reaction mixture was warmed to 110° C. and stirred for 16 hours, cooled to room temperature, and concentrated under reduced pressure. The residue was diluted with water (80 mL) and was extracted with ethyl acetate (2×80 mL). The combined organic phases were washed with saturated aqueous sodium chloride, dried over anhydrous sodium sulfate, and filtered, and the filtrate was concentrated under reduced pressure.

In the case of `O=C(Nc1cc(NC(=O)C2C(c3cc(Cl)cc(Cl)c3)C2(Cl)Cl)ccc1Cl)c1cccc(=O)[nH]1` (racemic), the melting point is reported as 312 to 316 °C.

With `O=C(Nc1cc(NC(=O)C2C(c3cc(Cl)cc(Cl)c3)C2(Cl)Cl)ccc1Cl)c1cc(C(F)(F)F)cc(C(F)(F)F)c1` (racemic) the melting point was 109 to 113 °C.

For `COCC(=O)Nc1ccc(C(=O)Nc2cc(NC(=O)[C@H]3[C@H](c4ccc(F)c(C(F)(F)F)c4)C3(Cl)Cl)ccc2Cl)c(C)c1F` (racemic) [F115, trans-rac-N-(2-Chloro-5-(2,2-dichloro-3-(4-fluoro-3-(trifluoromethyl)phenyl)cyclopropane-1-carboxamido)phenyl)-3-fluoro-4-(2-methoxyacetamido)-2-methylbenzamide], the “activity against YFM (scored based on mortality)” value (from here on “activity against YFM”) [1] was “exhibited activity” and the “activity against BAW (percent mortality, averaged over eight wells)” value [2] was “exhibited activity”.

In the case of `Cc1c(C(=O)Nc2cc(NC(=O)[C@H]3[C@H](c4ccc(F)c(C(F)(F)F)c4)C3(Cl)Cl)ccc2Cl)ccc(NC(=O)COCC(F)(F)F)c1F` (racemic) [F116, trans-rac-N-(2-Chloro-5-(2,2-dichloro-3-(4-fluoro-3-(trifluoromethyl)phenyl)cyclopropane-1-carboxamido)phenyl)-3-fluoro-2-methyl-4-(2-(2,2,2-trifluoroethoxy)acetamido)benzamide], the “activity against YFM” value [1] is reported as “exhibited activity” and the “activity against BAW (percent mortality, averaged over eight wells)” value [2] is reported as “exhibited activity”.

With `CC(=O)Nc1ccc(C(=O)Nc2cc(NC(=O)[C@H]3[C@H](c4ccc(F)c(C(F)(F)F)c4)C3(Cl)Cl)ccc2Cl)c(F)c1` (racemic) [F117, trans-rac-4-Acetamido-N-(2-chloro-5-(2,2-dichloro-3-(4-fluoro-3-(trifluoromethyl)phenyl)cyclopropane-1-carboxamido)phenyl)-2-fluorobenzamide] the “activity against YFM” value [1] was “exhibited activity” and the “activity against BAW (percent mortality, averaged over eight wells)” value [2] was “exhibited activity”.

In the case of `COCC(=O)Nc1ccc(C(=O)Nc2cc(NC(=O)[C@H]3[C@H](c4ccc(F)c(C(F)(F)F)c4)C3(Cl)Cl)ccc2Cl)c(F)c1` (racemic) [F118, trans-rac-N-(2-Chloro-5-(2,2-dichloro-3-(4-fluoro-3-(trifluoromethyl)phenyl)cyclopropane-1-carboxamido)phenyl)-2-fluoro-4-(2-methoxyacetamido)benzamide], the “activity against YFM” value [1] is reported as “exhibited activity” and the “activity against BAW (percent mortality, averaged over eight wells)” value [2] is reported as “exhibited activity”.

For `O=C(Nc1cc(NC(=O)[C@H]2[C@H](c3ccc(F)c(C(F)(F)F)c3)C2(Cl)Cl)ccc1Cl)c1ccc(F)nc1F` (single isomer, unassigned) [F107], the “efficacy against target pests, Peak-2 versus Peak-1” value (target pests) was “significantly greater than Peak-1”.

In the case of `O=C(Nc1c(F)ccc(NC(=O)[C@H]2[C@H](c3cc(Cl)c(Cl)c(Cl)c3)C2(Cl)Cl)c1F)c1ccc(F)cc1F` [F10, N-(3-((1R,3R)-2,2-dichloro-3-(3,4,5-trichlorophenyl)cyclopropane-1-carboxamido)-2,6-difluorophenyl)-2,4-difluorobenzamide], the “activity against YFM” value [1] is reported as “exhibited activity” and the “activity against BAW (percent mortality, averaged over eight wells)” value [2] is reported as “exhibited activity”.

With `O=C(Nc1c(F)ccc(NC(=O)[C@H]2[C@H](c3cc(Cl)c(Cl)c(Cl)c3)C2(Cl)Cl)c1F)C1CCCO1` (stereo partly drawn) [F11, N-(3-((1R,3R)-2,2-Dichloro-3-(3,4,5-trichlorophenyl)cyclopropane-1-carboxamido)-2,6-difluorophenyl)tetrahydrofuran-2-carboxamide] the “activity against YFM” value [1] was “exhibited activity” and the “activity against BAW (percent mortality, averaged over eight wells)” value [2] was “exhibited activity”.

For `CCCC(=O)Nc1c(F)ccc(NC(=O)[C@H]2[C@H](c3cc(Cl)c(Cl)c(Cl)c3)C2(Cl)Cl)c1F` [F14, (1R,3R)—N-(3-Butyramido-2,4-difluorophenyl)-2,2-dichloro-3-(3,4,5-trichlorophenyl)cyclopropane-1-carboxamide], the “activity against YFM” value [1] was “exhibited activity” and the “activity against BAW (percent mortality, averaged over eight wells)” value [2] was “exhibited activity”.

For `CC(CC(=O)Nc1cccc(NC(=O)[C@H]2[C@H](c3cc(Cl)cc(Cl)c3)C2(Cl)Cl)c1F)C(F)(F)F` (stereo partly drawn) [F15, (1R,3R)-2,2-Dichloro-3-(3,5-dichlorophenyl)-N-(2-fluoro-3-(4,4,4-trifluoro-3-methylbutanamido)phenyl)cyclopropane-1-carboxamide], the “activity against YFM” value [1] was “exhibited activity” and the “activity against BAW (percent mortality, averaged over eight wells)” value [2] was “exhibited activity”.

With `O=C(Nc1cccc(NC(=O)[C@H]2[C@H](c3cc(Cl)cc(Cl)c3)C2(Cl)Cl)c1F)c1ccc(F)cc1F` [F16, N-(3-((1R,3R)-2,2-Dichloro-3-(3,5-dichlorophenyl)cyclopropane-1-carboxamido)-2-fluorophenyl)-2,4-difluorobenzamide] the “activity against YFM” value [1] was “exhibited activity” and the “activity against BAW (percent mortality, averaged over eight wells)” value [2] was “exhibited activity”.

For `CCOC(C)C(=O)Nc1cccc(NC(=O)[C@H]2[C@H](c3cc(Cl)cc(Cl)c3)C2(Cl)Cl)c1F` (stereo partly drawn) [F18, (1R,3R)-2,2-Dichloro-3-(3,5-dichlorophenyl)-N-(3-(2-ethoxypropanamido)-2-fluorophenyl)cyclopropane-1-carboxamide], the “activity against YFM” value [1] was “exhibited activity” and the “activity against BAW (percent mortality, averaged over eight wells)” value [2] was “exhibited activity”.

In the case of `O=C(Nc1cccc(NC(=O)C(F)(F)C(F)(F)C(F)(F)F)c1F)[C@H]1[C@H](c2cc(Cl)cc(Cl)c2)C1(Cl)Cl` [F19, (1R,3R)-2,2-Dichloro-3-(3,5-dichlorophenyl)-N-(2-fluoro-3-(2,2,3,3,4,4,4-heptafluorobutanamido)phenyl)cyclopropane-1-carboxamide], the “activity against YFM” value [1] is reported as “exhibited activity” and the “activity against BAW (percent mortality, averaged over eight wells)” value [2] is reported as “exhibited activity”.

With `CCCC(=O)Nc1cccc(NC(=O)[C@H]2[C@H](c3cc(Cl)cc(Cl)c3)C2(Cl)Cl)c1F` [F20, (1R,3R)—N-(3-Butyramido-2-fluorophenyl)-2,2-dichloro-3-(3,5-dichlorophenyl)cyclopropane-1-carboxamide] the “activity against YFM” value [1] was “exhibited activity” and the “activity against BAW (percent mortality, averaged over eight wells)” value [2] was “exhibited activity”.

In the case of `CC(C#N)C(=O)Nc1cccc(NC(=O)[C@H]2[C@H](c3cc(Cl)cc(Cl)c3)C2(Cl)Cl)c1F` (stereo partly drawn) [F22, (1R,3R)-2,2-Dichloro-N-(3-(2-cyanopropanamido)-2-fluorophenyl)-3-(3,5-dichlorophenyl)cyclopropane-1-carboxamide], the “activity against YFM” value [1] is reported as “exhibited activity” and the “activity against BAW (percent mortality, averaged over eight wells)” value [2] is reported as “exhibited activity”.

With `O=C(Nc1cc(NC(=O)[C@H]2[C@H](c3ccc(F)c(C(F)(F)F)c3)C2(Cl)Cl)ccc1Cl)c1cc(F)cc(F)c1` [F100, N-(2-Chloro-5-((1R,3R)-2,2-dichloro-3-(4-fluoro-3-(trifluoromethyl)phenyl)cyclopropane-1-carboxamido)phenyl)-3,5-difluorobenzamide] the “activity against YFM” value [1] was “exhibited activity” and the “activity against BAW (percent mortality, averaged over eight wells)” value [2] was “exhibited activity”.

In the case of `O=C(Nc1cc(NC(=O)[C@H]2[C@H](c3cc(Cl)cc(Cl)c3)C2(Cl)Cl)ccc1Cl)c1ncc(F)cc1F` [F106, N-(2-Chloro-5-((1R,3R)-2,2-dichloro-3-(3,5-dichlorophenyl)cyclopropane-1-carboxamido)phenyl)-3,5-difluoropicolinamide], the “activity against YFM” value [1] is reported as “exhibited activity” and the “activity against BAW (percent mortality, averaged over eight wells)” value [2] is reported as “exhibited activity”.

For `O=C(Nc1cc(NC(=O)[C@H]2[C@H](c3ccc(F)c(C(F)(F)F)c3)C2(Cl)Cl)ccc1Cl)c1cnc(F)c(F)c1` [F109, N-(2-Chloro-5-((1R,3R)-2,2-dichloro-3-(4-fluoro-3-(trifluoromethyl)phenyl)cyclopropane-1-carboxamido)phenyl)-5,6-difluoronicotinamide], the “activity against YFM” value [1] was “exhibited activity” and the “activity against BAW (percent mortality, averaged over eight wells)” value [2] was “exhibited activity”.
